# Ends that are not written are not given here. Peptide text beside a SMILES is read from it.
# What was measured:
# in vitro [1] = settings: human, HeLa cells
# in vitro [2] = settings: human, HeLa cells; remark: listed apart in the source
# HeLa cells = test: GFP-NLS protein transduction assay (flow cytometry: Pos cells %, viability %, relative fluorescence intensity; microscopy); settings: GFP-NLS 5 μM; for Cell viability (%) (±St. Dev.; n = 3): Protocol B; for Cell viability (%) (±St. Dev.; n = 3) / FIG. 21B Cell viability (%) (±St. Dev.; n = 3): HeLa; for FIG. 21B Cell viability (%) (±St. Dev.; n = 3): Table 8.1, 1 hour; for cell viability: peptide 20 μM, Protocol B (Table 10.3e)
# [3] = Cell viability (%) (±St. Dev.; n = 3)
# [4] = Table 10.3a, shuttle 50 μM, 10 seconds
# [5] = Cell viability (%) (±St Dev.; n = 3)
# [6] = Table 10.3e, shuttle 20 μM, 1 minute
# [7] = Table 10.1, shuttle 50 μM, 10 seconds
Molecule,viability (in vitro [1]) [%],"viability at 1 min, 10 µM (in vitro [2]; [3]) [%]",other results
CC[C@H](C)[C@H](N)C(=O)N[C@H](C(=O)N[C@@H](CCCNC(=N)N)C(=O)N[C@@H](Cc1c[nH]cn1)C(=O)N[C@@H](CCC(=O)O)C(=O)N[C@@H](Cc1c[nH]cn1)C(=O)N[C@@H](CS)C(=O)N[C@@H](CCSC)C(=O)N[C@H](C(=O)N[C@@H](Cc1c[nH]cn1)C(=O)N[C@@H](CC(C)C)C(=O)N[C@@H](Cc1c[nH]c2ccccc12)C(=O)N[C@@H](Cc1ccc(O)cc1)C(=O)N[C@@H](CCCCN)C(=O)N[C@@H](CC(N)=O)C(=O)N[C@@H](CC(C)C)C(=O)N[C@@H](C)C(=O)N[C@@H](CCCCN)C(=O)N[C@@H](Cc1ccc(O)cc1)C(=O)N[C@@H](CS)C(=O)N[C@@H](CO)C(=O)N[C@H](C(=O)N[C@@H](CO)C(=O)N[C@@H](Cc1c[nH]cn1)C(=O)N[C@@H](C)C(=O)N[C@@H](CCCNC(=N)N)C(=O)N[C@@H](CCCNC(=N)N)C(=O)N[C@@H](CC(C)C)C(=O)N[C@@H](C)C(=O)N[C@@H](CCCNC(=N)N)C(=O)N[C@@H](CCCNC(=N)N)C(=O)N[C@@H](CCCNC(=N)N)C(=O)N[C@@H](C)C(=O)N[C@@H](Cc1c[nH]cn1)C(=O)N[C@@H](Cc1c[nH]cn1)C(=O)O)[C@@H](C)O)[C@@H](C)CC)C(C)C [FSD32] (H-IVRHEHCMIHLWYKNLAKYCSTSHARRLARRRAHH-OH),98.36 ± 0.15,99.2 ± 3.37,–
CC[C@H](C)[C@H](NC(=O)[C@H](Cc1c[nH]cn1)NC(=O)[C@@H](NC(=O)[C@H](CC(C)C)NC(=O)[C@H](CS)NC(=O)[C@H](Cc1c[nH]cn1)NC(=O)[C@H](Cc1c[nH]cn1)NC(=O)[C@H](Cc1c[nH]cn1)NC(=O)[C@H](Cc1c[nH]cn1)NC(=O)[C@H](Cc1c[nH]cn1)NC(=O)[C@@H](N)Cc1c[nH]cn1)[C@@H](C)CC)C(=O)N[C@@H](Cc1c[nH]c2ccccc12)C(=O)N[C@@H](CCC(=O)O)C(=O)N[C@@H](C)C(=O)N[C@@H](CCCCN)C(=O)N[C@@H](CC(C)C)C(=O)N[C@@H](C)C(=O)N[C@@H](CCCCN)C(=O)N[C@@H](CCCCN)C(=O)N[C@@H](CS)C(=O)NCC(=O)NCC(=O)NCC(=O)NCC(=O)N[C@@H](Cc1ccc(O)cc1)C(=O)N[C@@H](C)C(=O)N[C@@H](CCCNC(=N)N)C(=O)N[C@@H](C)C(=O)N[C@@H](C)C(=O)N[C@@H](C)C(=O)N[C@@H](CCCNC(=N)N)C(=O)N[C@@H](CCC(N)=O)C(=O)N[C@@H](C)C(=O)N[C@@H](CCCNC(=N)N)C(=O)N[C@@H](C)C(=O)O [FSD36] (H-HHHHHHCLIHIWEAKLAKKCGGGGYARAAARQARA-OH),97 ± 1.99,98.9 ± 0.38,–
CC[C@H](C)[C@H](NC(=O)[C@@H](NC(=O)[C@H](Cc1ccccc1)NC(=O)[C@@H](N)CCCCN)[C@@H](C)O)C(=O)N[C@H](C(=O)N[C@@H](Cc1ccccc1)C(=O)N1CCC[C@H]1C(=O)N[C@@H](Cc1c[nH]cn1)C(=O)N[C@@H](CC(N)=O)C(=O)N[C@@H](CCC(N)=O)C(=O)N[C@@H](CCCCN)C(=O)NCC(=O)N[C@@H](CC(N)=O)C(=O)N[C@@H](Cc1c[nH]c2ccccc12)C(=O)N[C@@H](CCCCN)C(=O)N[C@@H](CC(N)=O)C(=O)N[C@H](C(=O)N1CCC[C@H]1C(=O)N[C@@H](CO)C(=O)N[C@@H](CC(N)=O)C(=O)N[C@@H](Cc1ccc(O)cc1)C(=O)N[C@@H](Cc1c[nH]cn1)C(=O)N[C@@H](Cc1ccc(O)cc1)C(=O)N[C@@H](CS)C(=O)N1CCC[C@H]1C(=O)N[C@@H](Cc1ccc(O)cc1)C(=O)N[C@@H](C)C(=O)N[C@@H](CCCNC(=N)N)C(=O)N[C@@H](C)C(=O)N[C@@H](C)C(=O)N[C@@H](C)C(=O)N[C@@H](CCCNC(=N)N)C(=O)N[C@@H](CCC(N)=O)C(=O)N[C@@H](C)C(=O)N[C@@H](CCCNC(=N)N)C(=O)N[C@@H](C)C(=O)O)C(C)C)C(C)C [VSVG-PTD4],96.2 ± 2.57,–,Cell viability (%) (±St. Dev.; n = 3) (HeLa cells; [4]): 100%
ALLGLFIKWVKKVGTLFRKAKAGAQNRRAKAQKGK [FSD26],97.2 ± 1.53,–,viability (in vitro [2]; [5]): 59.3 ± 1.27%
GHHHHHHHLIHIWEAKLAKLAKALARAAARQARAK [FSD38],95 ± 2.78,98.1 ± 7.35,–
HAHHAHHAHKWKLFKKIGAVLKVLTTGYARAAARQARA [3HA-CM18-PTD4],51.5 ± 4.83,–,Cell viability (%) (±St. Dev.; n = 3) (HeLa cells; [6]): 43.6 ± 2.8%
HHHAHHHKWKLFKKIGAVLKVLTTGYARAAARQARA [HA-CM18-PTD4],53.2 ± 4.62,–,Cell viability (%) (±St. Dev.; n = 3) (HeLa cells; [6]): 68.3 ± 4.1%
HHHHAAVLKLWKRLLKLFRKGRRLKAKRAKAKR [FSD20],20.5 ± 3.53,–,viability (in vitro [2]; [5]): 65.4 ± 6.18%
HHHHHHCLLKKWEAKLAKKIGGGGRQARAKALAKA [FSD30],97.4 ± 2.06,99.1 ± 0.52,–
HHHHHHHHHHHHKWKLFKKIGAVLKVLTTGYARAAARQARA [12His-CM18-PTD4],97.5 ± 1.57,–,Cell viability (%) (±St. Dev.; n = 3) (HeLa cells; [6]): 33.4 ± 4.3%
HHHHHHHHRQRRRWEARGFLGGGGYARAARQARAA [FSD39],99.2 ± 0.61,97.3 ± 2.07,–
HHHHHHHHRQRRRWEARGGFLGGGGYARAARQARA [FSD33],75.3 ± 4.19,98.1 ± 1.73,–
HHHHHHHMAHLWESNARKFWKKAFAQHAAAHIAEA [FSD28],97 ± 1.11,99.4 ± 4.04,–
HHHHHHKLIHIWEAKLFKKIRAAARQARARRAAKA [FSD34],96.4 ± 2.41,97.9 ± 8.18,"viability at 1 min, 10 µM (in vitro [2]; cell viability): 83.9 to 98%"
HHHHHHKLLKRWEAKLAKALAKALAKHLAKALAKA [FSD35],96.1 ± 1.67,81.7 ± 3.45,–
HHHHHHKWKIARAFARSLKKLYARLLARQAKTGHHHHHH [FSD15],98.3 ± 1.07,–,viability (in vitro [2]): 96.1 ± 2.61%
HHHHHHKWKLARAFARAIKKLYARALRRQARTG [FSD8],42.3 ± 6.42,–,viability (in vitro [2]; [5]): 64.8 ± 7.59%
HHHHHHKWKLARAFARAIKKLYARALRRQARTGHHHHHH [FSD9],36.1 ± 3.41,79.5 ± 6.33,"viability (in vitro [2]; [5]): 67.3 ± 5.19%; viability at 1 min, 8 µM (in vitro [2]; [3]): 82.3 ± 7.16%; viability at 2 min, 5 µM (in vitro [2]; [3]): 45.6 ± 3.64%"

Molecule,viability (in vitro [1]) [%],"viability at 1 min, 10 µM (in vitro [2]; [3]) [%]",other results
HHHHHHKWKLARAFARALRAIKKLYARALRRQARTG [FSD11],46.2 ± 1.35,–,viability (in vitro [2]; [5]): 60.9 ± 7.59%
HHHHHHKWKLFKKIGAVLKVLTTGRRRRRRRRR [His-CM18-9Arg],31.63 ± 0.11,–,Cell viability (%) (±St. Dev.; n = 3) (HeLa cells; [7]): 45.8 ± 5.4%; Cell viability (%) (±St. Dev.; n = 3) (HeLa cells; [4]): 45.8 ± 3.53%
HHHHHHKWKLFKKIGAVLKVLTTGYARAAARQARAHHHHHH [His-CM18-PTD4-His],29.4 ± 2.38,–,"Cell viability (%) (±St. Dev.; n = 3) (HeLa cells; Table 10.3c, shuttle 10 μM, incubation 1 min): 68.1 ± 2.7%; Cell viability (%) (±St. Dev.; n = 3) (HeLa cells; Table 10.3c, shuttle 10 μM, incubation 2 min): 61.6 ± 3.2%; Cell viability (%) (±St. Dev.; n = 3) (HeLa cells; Table 10.3c, shuttle 10 μM, incubation 5 min): 41.2 ± 4.4%; Cell viability (%) (±St. Dev.; n = 3) (HeLa cells; [6]): 78.6 ± 1.1%"
HHHHHHKWKLFKKIGAVLKVLTTGYGRKKRRQRRR [His-CM18-TAT],13.6 ± 0.18,–,FIG. 21B Cell viability (%) (±St. Dev.; n = 3) (HeLa cells; shuttle 1 μM): 95 ± 3.05%; FIG. 21B Cell viability (%) (±St. Dev.; n = 3) (HeLa cells; shuttle 3 μM): 91 ± 5.18%; FIG. 21B Cell viability (%) (±St. Dev.; n = 3) (HeLa cells; shuttle 5 μM): 86 ± 4.59%; Cell viability (%) (±St. Dev.; n = 3) (HeLa cells; [7]): 35.2 ± 5.7%; Cell viability (%) (±St. Dev.; n = 3) (HeLa cells; [4]): 35.2 ± 5.7%
HHHHHHKWKLFWEAKLAKYARAAARQARAARQARA [FSD27],98 ± 0.63,96.6 ± 4.94,"viability at 1 min, 10 µM (in vitro [2]; cell viability): 83.9 to 98%"
HHHHHHLLKLWSRLLKLWTQGRRLKAKRAKA [FSD16],99.07 ± 0.73,–,viability (in vitro [2]; [5]): 88.2 ± 2.66%
HHHHHHWARLARAFARAIKKLYARALRRQARTG [FSD7],60.9 ± 7.59,–,viability (in vitro [2]; [5]): 38.5 ± 3.48%
HHHHHHWLKLLRRAAKKAARLYRKLLRKARKLHHHHHH [FSD2],55.8 ± 4.19,–,viability (in vitro [2]; [5]): 76.3 ± 5.99%
HHHKWKLFKKIGAVLKVLTTGYARAAARQARA [3His-CM18-PTD4],82 ± 6.81,–,Cell viability (%) (±St. Dev.; n = 3) (HeLa cells; [6]): 39.2 ± 3.3%
"KWKLFKKIGAVLKVLTTG [CM18, reference compound]",99.4 ± 0.14,–,"Cell viability (%) (±St. Dev.; n = 3) (HeLa cells; Table 10.4, peptide 50 μM, 10 seconds): 95 ± 1.2%"
KWKLFKKIGAVLKVLTTGGGSGGGSGGGSGYARAAARQARA [CM18-L3-PTD4],98.4 ± 0.83,–,"viability at 1 min, 20 µM (in vitro [2]): 71.9 ± 6%; cell viability (HeLa cells; 1 minute): increased cell viability"
KWKLFKKIGAVLKVLTTGGGSGGGSYARAAARQARA [CM18-L2-PTD4],93.7 ± 3.07,–,Cell viability (%) (±St. Dev.; n = 3) (HeLa cells; [6]): 64.0 ± 1.3%; cell viability (HeLa cells; 1 minute): increased cell viability
KWKLFKKIGAVLKVLTTGGGSYARAAARQARA [CM18-L1-PTD4],84.3 ± 5.64,–,Cell viability (%) (±St. Dev.; n = 3) (HeLa cells; [6]): 50.1 ± 3.8%; cell viability (HeLa cells; 1 minute): increased cell viability
KWKLFKKIGAVLKVLTTGYARAAARQARA [CM18-PTD4],49.6 ± 5.06,–,Cell viability (%) (±St. Dev.; n = 3) (HeLa cells; [6]): 33.9 ± 3.7%; cell viability (HeLa cells; 1 minute): 33.9%
LHHHHHKLIHIWEAKLAKALAKALARRAAARQARA [FSD41],94.4 ± 2.81,79.5 ± 0.33,–
YGRKKRRQRRRCKWKLFKKIGAVLKVLTTG [TAT-CM18],44.8 ± 4.17,–,"Cell viability (%) (±St. Dev.; n = 3) (HeLa cells; [7]): 23.5 ± 1.1%; Cell viability (%) (±St. Dev.; n = 3) (HeLa cells; Table 10.3b, shuttle 50 μM, 10 seconds): 23.5 ± 1.1%"
YGRKKRYMLRLWYQNLRMYCKKAYAQHRARQHAKL [FSD40],98.6 ± 1.08,83.9 ± 4.16,"viability at 1 min, 10 µM (in vitro [2]; cell viability): 83.9 to 98%"
YHHHHHKWKKRWEAKLAKALRAAGRQARAKALAKA [FSD31],98.43 ± 0.43,97.8 ± 4.22,–

# From patent US12286632B2, “Rationally-designed synthetic peptide shuttle agents for delivering polypeptide cargos from an extracellular space to the cytosol and/or nucleus of a target eukaryotic cell, uses thereof, methods and kits relating to same” (Feldan Bio Inc., priority 2016, dated 2025)
